Here are results for one compound from US9284272B2, “Inhibitors of histone methyltransferase G9a” (AbbVie Inc., priority 2014, dated 2016).

Bounds are passed on as bounds.

Series [1] is described as follows: Cytotoxicity, CellTiter Glo. The following applies: human, ZR7350 cells, 7-day proliferation, neural crest derived lines. Type of series: cell-based. (In general: In ATP-based viability assays light output follows the ATP content of the culture.)
Series [2] in a line: Cytotoxicity, CellTiter Glo. Type of series: cell-based. The following applies: human, PA-1 cells, 7-day proliferation, neural crest derived lines.
The next series has as its system MV4;11 cells. The series can be described thus: Differentiation, proliferation, viability and cell cycle of MV4;11 cells, 14 days. Type of series: cell-based, human. The source says: MV4;11 cells are a human acute myelocytic leukemia (AML) cell line derived from a human with leukemia.
Series [3] can be described thus: Cytotoxicity, CellTiter Glo. Type of series: cell-based. The following applies: human, H929 cells, 5-day proliferation.
The nature of series [4]: Cytotoxicity, CellTiter Glo. Conditions: human, MV4;11 cells, 5-day proliferation. Type of series: cell-based.
Series [5] can be described thus: Cytotoxicity, CellTiter Glo. Type of series: cell-based. The following applies: human, IMR-32 cells, 12-day proliferation, neural crest derived lines.
In series [6] the test system is HT1080 fibrosarcoma cells. The series can be described thus: Cell viability of HT1080 fibrosarcoma cells. Type of series: cell-based. Conditions: 48 h, 0-10,000 nM.
Series [7] can be described thus: Cytotoxicity, CellTiter Glo. Conditions: human, DaoY cells, 7-day proliferation, neural crest derived lines. Type of series: cell-based.
Series [8] relates to human peripheral blood mononucleated cells (PBMCs). As to the kind of experiment: Viability of PBMCs (Caspase-Glo 3/7, CellTiter Glo). Type of series: cell-based. The following applies: 0-10 uM, 48 h. As to the method:
Following treatment, Caspase 3/7 activity (i.e., a marker of apoptosis) was assessed by the Caspase-Glo 3/7 assay system (FIG. 7A), and cell viability was assessed by CellTiter Glo assay (FIG. 7B).

Series [9] can be described thus: Cytotoxicity, CellTiter Glo. Type of series: cell-based. The following applies: human, CAPO-ES1 cells, 7-day proliferation, neural crest derived lines.
A short description of series [10]: Cytotoxicity, CellTiter Glo. Type of series: cell-based. The following applies: human, DU145 cells, 5-day proliferation.
The nature of series [11]: Cytotoxicity, CellTiter Glo. Conditions: human, SK-N-MC cells, 7-day proliferation, neural crest derived lines. Type of series: cell-based.
The nature of series [12]: Cytotoxicity, CellTiter Glo. Type of series: cell-based. The following applies: human, OPM2 cells, 5-day proliferation.
The nature of series [13]: Cytotoxicity, CellTiter Glo. Type of series: cell-based. The following applies: human, US2OS cells, 7-day proliferation, neural crest derived lines.
Another series relates to H3K9me2. As to the kind of experiment: PK/PD study, reduction in H3K9me2 in MV4;11 xenograft. Type of series: in vivo, SCID/bg mice. Conditions: for reduction in H3K9me2: 30 mg/kg/day osmotic mini-pump, relative to vehicle. The source says:
Specifically, subcutaneous MV4;11 xenografts were implanted in SCID/bg mice and allowed to grow to 200 mm^3. […] In particular, by day 14, dimethylation of lysine 9 of histone H3 in the tumor tissue was reduced by 46 percent as compared to the vehicle.

Series [14] in a line: Cytotoxicity, CellTiter Glo. Type of series: cell-based. The following applies: human, TC-71 cells, 7-day proliferation, neural crest derived lines.

One may read the IC50 as the concentration that gives 50% inhibition. Read a low IC50 as inhibition by little substance. Consider `COc1cc2c(cc1OCCCN1CCCC1)N=C(N)C21CCC1` [Example 7, 5′-methoxy-6′-(3-(pyrrolidin-1-yl)propoxy)spiro[cyclobutane-1,3′-indol]-2′-amine], for which the IC50 at 7 day in series [1] was greater than 10 µM; in [2], greater than 10 µM; in series [7], greater than 10 µM; in series [9], greater than 10 µM; in series [11] it was 9.7 µM; in [13], greater than 10 µM. In addition, the IC50 at 7 day in series [14] is greater than 10 µM. Also, the “MV4;11 cells no longer proliferating (CellTiter Glo)” value in the series with MV4;11 cells (3 μM) is listed as “about 100%”. For the same compound, in the series on MV4;11 cells (Homo sapiens, MV4-11, 336 h, 3 μM, read-out: viable MV4;11 cells (trypan blue exclusion)), the viability at 3 µM was roughly 20%. The “cell cycle analysis (PI staining)” value in the series with MV4;11 cells (MV4;11 cells, 0-3 μM) is on record as “more cells were observed to be in the subG1/G0 phase”. The “expression of marker CD11b by flow cytometry (differentiation)” value in the series on MV4;11 cells (MV4;11 cells, 0-3 μM) is “more cells in the population expressed the marker CD11b”. Besides, the “cells positive for CD11b” value in the series with MV4;11 cells (MV4;11 cells, 3 μM) is recorded as “about 90%”. For the same compound, the IC50 at 5 day in series [3], in [4], in series [10] and in series [12] was greater than 10 µM throughout. Also, the IC50 at 12 day in series [5] is greater than 10 µM. Besides, in [6], the “cytotoxicity compared with UNC0638” value is “reduced cytotoxicity”. Moreover, in [8], the “effect on PBMC viability (Caspase 3/7 activity and CellTiter Glo)” value is on record as “no effect on cell viability”. The “reduction in H3K9me2” value in the series with H3K9me2 (Day 2) was 0%; in the series with H3K9me2 (Day 7) it was 25%; in the series on H3K9me2 (Day 14), 46%. Also, the “reduction of dimethylation of lysine 9 of histone H3 in the tumor tissue” value with H3K9me2 (day 14, compared to vehicle) was 46%.
